US11452727B2, “Combination therapy for treating cancer” (Epizyme, Inc., priority 2017, dated 2022)

Assays:
Assay in all cases: In vitro combination study with tazemetostat, cell proliferation (Cell Titer Glo)
Calu-6 = details: 7 days tazemetostat pre-treatment, 6 days co-treatment with second agent
NCI-H2030 = details: 7 days tazemetostat pre-treatment, 6 days co-treatment with second agent
NCI-H1703 = details: 7 days tazemetostat pre-treatment, 6 days co-treatment with second agent
A549 = details: 7 days tazemetostat pre-treatment, 6 days co-treatment with second agent
Description: (§1) Initial proliferation studies were performed to determine the IC50 of tazemetostat in each cell line. For the screen, tazemetostat was used at concentrations bracketed around the IC50 value. If 50% inhibitory concentration was not reached then tazemetostat was tested starting at 10 μM.
(§2) In order to study the effect of dual combination of tazemetostat and a second agent on cell proliferation, cells in log-linear phase growth rate were pre-treated with various concentrations of tazemetostat or DMSO for 7 days in flasks, plated in 384-well plates in the absence of compounds and co-treated on day 8 with tazemetostat or DMSO and the second agent serially diluted for additional 6 days (as depicted in FIG. 1). On day 15, plates were developed for endpoint analysis using Cell Titer Glo to measure ATP content, which was used as an indicator of cell viability. DMSO concentration was kept constant throughout the assay at 0.15% v/v.

NCI-H23 = details: 7 days tazemetostat pre-treatment, 6 days co-treatment with second agent
NCI-H1573 = details: 7 days tazemetostat pre-treatment, 6 days co-treatment with second agent
NCI-H1993 = details: 7 days tazemetostat pre-treatment, 6 days co-treatment with second agent
Description: as §1, §2

Calu-3 = details: 7 days tazemetostat pre-treatment, 6 days co-treatment with second agent
Description: as §1, §2
NCI-H1573 was cultured in DMEM: F12 Medium containing the following components: 0.02 mg/ml insulin, 0.01 mg/ml transferrin, 25 nM sodium selenite, 50 nM Hydrocortisone, 1 ng/ml Epidermal Growth Factor, 0.01 mM ethanolamine, 0.01 mM phosphorylethanolamine, 100 pM triiodothyronine, 0.5% (w/v) bovine serum albumin, 0.5 mM sodium pyruvate, 4.5 mM L-glutamine and 1% v/v Pen/Strep.

NCI-H1793 = details: 7 days tazemetostat pre-treatment, 6 days co-treatment with second agent
HCC827 = details: 7 days tazemetostat pre-treatment, 6 days co-treatment with second agent
NCI-H460 = details: 7 days tazemetostat pre-treatment, 6 days co-treatment with second agent
NCI-H522 = details: 7 days tazemetostat pre-treatment, 6 days co-treatment with second agent
NCI-H1299 = details: 7 days tazemetostat pre-treatment, 6 days co-treatment with second agent
Description: as §1, §2

NCI-H661 = details: 7 days tazemetostat pre-treatment, 6 days co-treatment with second agent
NCI-H838 = details: 7 days tazemetostat pre-treatment, 6 days co-treatment with second agent
A427 = details: A427; 7 days tazemetostat pre-treatment, 6 days co-treatment with second agent
NCI-H2122 = details: 7 days tazemetostat pre-treatment, 6 days co-treatment with second agent
Description: as §1, §2
All cell lines were obtained from American Type Culture Collection (ATCC; Rockville, Md.). […] A427, Calu-3, Calu-6 cell lines were cultured in EMEM+10% Fetal bovine serum (FBS)+1% v/v Penicillin/Streptomycin (P/S).

NCI-H2110 = details: 7 days tazemetostat pre-treatment, 6 days co-treatment with second agent

CN(C)C(=O)c1cc2cnc(Nc3ccc(N4CCNCC4)cn3)nc2n1C1CCCC1 [Ribociclib, ribociclib]
combinatorial effect with tazemetostat (Loewe volume class) (Calu-6): No eff.
combinatorial effect with tazemetostat (Loewe volume class) (NCI-H2030): Syn. (Loewe volumes greater than 1 denoted “synergy”)
combinatorial effect with tazemetostat (Loewe volume class) (NCI-H1703): Anta. (volumes <−1 denoted “antagonism”)
combinatorial effect with tazemetostat (Loewe volume class) (A549): Anta. (volumes <−1 denoted “antagonism”)
combinatorial effect with tazemetostat (Loewe volume class) (NCI-H23): No eff.
combinatorial effect with tazemetostat (Loewe volume class) (NCI-H1573): Syn. (Loewe volumes greater than 1 denoted “synergy”)
combinatorial effect with tazemetostat (Loewe volume class) (NCI-H1993): Syn. (Loewe volumes greater than 1 denoted “synergy”)
combinatorial effect with tazemetostat (Loewe volume class) (Calu-3): Syn. (Loewe volumes greater than 1 denoted “synergy”)
combinatorial effect with tazemetostat (Loewe volume class) (NCI-H1793): Syn. (Loewe volumes greater than 1 denoted “synergy”)
combinatorial effect with tazemetostat (Loewe volume class) (HCC827): Add. (A value between −1 and 1 denoted “additivity”)
combinatorial effect with tazemetostat (Loewe volume class) (NCI-H460): Add. (A value between −1 and 1 denoted “additivity”)
combinatorial effect with tazemetostat (Loewe volume class) (NCI-H522): No eff.
combinatorial effect with tazemetostat (Loewe volume class) (NCI-H1299): Anta. (volumes <−1 denoted “antagonism”)
combinatorial effect with tazemetostat (Loewe volume class) (NCI-H661): Syn. (Loewe volumes greater than 1 denoted “synergy”)
combinatorial effect with tazemetostat (Loewe volume class) (NCI-H838): Add. (A value between −1 and 1 denoted “additivity”)
combinatorial effect with tazemetostat (Loewe volume class) (A427): Syn. (Loewe volumes greater than 1 denoted “synergy”)
combinatorial effect with tazemetostat (Loewe volume class) (NCI-H2122): Anta. (volumes <−1 denoted “antagonism”)
combinatorial effect with tazemetostat (Loewe volume class) (NCI-H2110): No eff.

Cn1cnc2c(F)c(Nc3ccc(Br)cc3Cl)c(C(=O)NOCCO)cc21 [Selumetinib, selumetinib]
combinatorial effect with tazemetostat (Loewe volume class) (Calu-6): Syn. (Loewe volumes greater than 1 denoted “synergy”)
combinatorial effect with tazemetostat (Loewe volume class) (NCI-H2030): Add. (A value between −1 and 1 denoted “additivity”)
combinatorial effect with tazemetostat (Loewe volume class) (NCI-H1703): Syn. (Loewe volumes greater than 1 denoted “synergy”)
combinatorial effect with tazemetostat (Loewe volume class) (A549): Add. (A value between −1 and 1 denoted “additivity”)
combinatorial effect with tazemetostat (Loewe volume class) (NCI-H23): Add. (A value between −1 and 1 denoted “additivity”)
combinatorial effect with tazemetostat (Loewe volume class) (NCI-H1573): Syn. (Loewe volumes greater than 1 denoted “synergy”)
combinatorial effect with tazemetostat (Loewe volume class) (NCI-H1993): Syn. (Loewe volumes greater than 1 denoted “synergy”)
combinatorial effect with tazemetostat (Loewe volume class) (Calu-3): Syn. (Loewe volumes greater than 1 denoted “synergy”)
combinatorial effect with tazemetostat (Loewe volume class) (NCI-H1793): Syn. (Loewe volumes greater than 1 denoted “synergy”)
combinatorial effect with tazemetostat (Loewe volume class) (HCC827): Add. (A value between −1 and 1 denoted “additivity”)
combinatorial effect with tazemetostat (Loewe volume class) (NCI-H460): Anta. (volumes <−1 denoted “antagonism”)
combinatorial effect with tazemetostat (Loewe volume class) (NCI-H522): Syn. (Loewe volumes greater than 1 denoted “synergy”)
combinatorial effect with tazemetostat (Loewe volume class) (NCI-H1299): Add. (A value between −1 and 1 denoted “additivity”)
combinatorial effect with tazemetostat (Loewe volume class) (NCI-H661): Syn. (Loewe volumes greater than 1 denoted “synergy”)
combinatorial effect with tazemetostat (Loewe volume class) (NCI-H838): Syn. (Loewe volumes greater than 1 denoted “synergy”)
combinatorial effect with tazemetostat (Loewe volume class) (A427): Syn. (Loewe volumes greater than 1 denoted “synergy”)
combinatorial effect with tazemetostat (Loewe volume class) (NCI-H2122): Anta. (volumes <−1 denoted “antagonism”)
combinatorial effect with tazemetostat (Loewe volume class) (NCI-H2110): Syn. (Loewe volumes greater than 1 denoted “synergy”)
